Patent publication US20230301968A1 (ZEPHAPHARM LTD, priority 2020, published 2023)

What was measured:
CYP2C9 = CYP2C9 (Homo sapiens, UniProt P11712); test: Cytochrome P450 reaction phenotyping, recombinant CYP2C9; conditions: for t½: 1 µM substrate, recombinant CYP2C9, NADPH
Method: (§1) The amount of test compound remaining at each time point was analysed by LC-MS/MS. Incubations in control recombinant enzymes were also performed to assess non-enzymatic mediated stability.
(§2) Incubations were also performed using control Bactosomes™ (no cytochrome P450 enzymes present) to reveal any non-enzymatic degradation. Control compounds known to be metabolised specifically by each P450 isoform were included. All incubations were performed singularly for each test compound. […] The reactions were stopped by transferring an aliquot of incubate to quench solvent at the appropriate time points, in a 1:3 ratio. The termination plates were centrifuged at 3,000 rpm for 20 min at 4° C. to precipitate the protein. Following protein precipitation, the sample supernatants were analysed using LC-MS/MS, along with internal standard (1:1 supernatant to internal standard).
(§3) Following correction for any loss in the incubations with the control Bactosomes™, from a plot of In peak area ratio (compound peak area/internal standard peak area) against time, the gradient of the line was determined. Subsequently, half-life (t½) was calculated using the equations below: […]

CYP1A2 = test: Stability in human cryopreserved hepatocytes with or without CYP1A2 inhibitors (assays 1 to 3); conditions: human, hepatocytes; for half-life at 1 µM: t½
Method: (§4) In each assay, the amount of test compound remaining at each time point was analysed by LC-MS/MS.
(§5) The final incubation volume was 500 µL. […] A positive control compound, ethoxycoumarin, for CYP1A2 (as CYP1A2 substrate) was included. […] The reactions were stopped by transferring 50 µL of incubate to 100 µL acetonitrile containing internal standard at the appropriate time points (0, 5, 10, 20, 40 and 60 min). The termination plates were centrifuged at 2500 rpm at 4° C. for 30 min to precipitate the protein.
(§6) From a plot of In peak area ratio (compound peak area/internal standard peak area) against time, the gradient of the line was determined. Subsequently, half-life (t½) and intrinsic clearance (CLint) were calculated using the equations below: […]

[1] = as above; conditions: human, hepatocytes; for half-life at 1 µM: t½
Method: as §4, §5, §6

CYP3A4 = biological target: T1, CYP3A4 (Homo sapiens, UniProt P08684); test: Cytochrome P450 reaction phenotyping, recombinant CYP3A4; type: in vitro ADME
T1 construct: purchased
Method: as §1, §2, §3

CYP2C8 = biological target: T2, CYP2C8 (Homo sapiens, UniProt P10632); test: Cytochrome P450 reaction phenotyping, recombinant CYP2C8; type: in vitro ADME; conditions: for t½: 1 µM substrate, recombinant CYP2C8, NADPH
T2 construct: purchased
T2 sequence (P10632 1-490): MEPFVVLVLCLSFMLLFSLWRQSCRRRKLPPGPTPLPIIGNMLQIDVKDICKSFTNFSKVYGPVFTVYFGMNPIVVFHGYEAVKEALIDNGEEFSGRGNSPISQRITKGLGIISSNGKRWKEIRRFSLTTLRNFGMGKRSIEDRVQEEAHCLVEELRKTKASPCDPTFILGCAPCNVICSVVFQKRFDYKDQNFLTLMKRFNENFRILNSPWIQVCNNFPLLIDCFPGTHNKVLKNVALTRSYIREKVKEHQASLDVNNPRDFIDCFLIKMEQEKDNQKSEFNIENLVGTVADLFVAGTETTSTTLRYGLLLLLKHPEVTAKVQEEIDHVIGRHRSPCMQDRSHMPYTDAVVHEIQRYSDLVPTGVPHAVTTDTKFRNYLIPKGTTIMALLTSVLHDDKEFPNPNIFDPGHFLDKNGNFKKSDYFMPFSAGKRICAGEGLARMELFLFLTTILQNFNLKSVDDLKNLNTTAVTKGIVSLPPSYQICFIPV
Method: as §1, §2, §3

T1 sequence (P08684 whole entry): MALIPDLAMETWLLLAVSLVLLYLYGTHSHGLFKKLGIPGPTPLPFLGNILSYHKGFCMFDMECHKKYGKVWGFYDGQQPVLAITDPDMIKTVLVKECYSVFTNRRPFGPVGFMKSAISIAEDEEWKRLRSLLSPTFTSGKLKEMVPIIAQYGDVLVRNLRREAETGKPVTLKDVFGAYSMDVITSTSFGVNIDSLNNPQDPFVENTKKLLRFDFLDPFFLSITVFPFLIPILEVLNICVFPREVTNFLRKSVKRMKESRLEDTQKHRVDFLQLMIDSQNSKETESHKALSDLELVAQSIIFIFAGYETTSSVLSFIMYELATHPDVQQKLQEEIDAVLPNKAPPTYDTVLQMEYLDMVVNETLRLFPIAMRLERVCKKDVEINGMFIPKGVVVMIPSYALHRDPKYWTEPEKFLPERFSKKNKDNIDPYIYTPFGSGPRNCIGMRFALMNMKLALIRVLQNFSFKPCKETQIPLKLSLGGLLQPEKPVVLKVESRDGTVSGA
CYP2C9, sequence (P11712 whole entry): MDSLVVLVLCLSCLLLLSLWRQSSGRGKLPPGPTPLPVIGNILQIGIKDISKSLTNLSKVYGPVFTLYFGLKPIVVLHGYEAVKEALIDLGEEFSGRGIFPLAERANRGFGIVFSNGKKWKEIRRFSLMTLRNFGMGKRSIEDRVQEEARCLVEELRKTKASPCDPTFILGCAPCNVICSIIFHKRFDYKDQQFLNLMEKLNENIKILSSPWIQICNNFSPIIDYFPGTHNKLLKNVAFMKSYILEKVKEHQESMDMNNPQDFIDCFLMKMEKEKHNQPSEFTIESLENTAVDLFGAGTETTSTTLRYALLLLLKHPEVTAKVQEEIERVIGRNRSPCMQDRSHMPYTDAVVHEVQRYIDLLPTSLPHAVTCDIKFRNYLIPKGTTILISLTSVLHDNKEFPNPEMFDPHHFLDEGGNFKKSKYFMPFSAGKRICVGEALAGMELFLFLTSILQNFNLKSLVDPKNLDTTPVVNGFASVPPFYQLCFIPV

What does the source list for `COC(=O)Nc1nc2cc(C(=O)c3ccc(F)cc3)ccc2[nH]1` [Flubendazole, methyl N-[6-(4-fluorobenzoyl)-1H-benzimidazol-2-yl]carbamate]?
t½ (CYP2C9): 95.33 h; t½ (CYP2C9; listed as flubendazole): ≥ 2.45 h; Compound Remaining (% of 0 min) (CYP2C9; CYP2C9, 0 min): 100%; Compound Remaining (% of 0 min) (CYP2C9; CYP2C9, 5 min): 97.4%; Compound Remaining (% of 0 min) (CYP2C9; CYP2C9, 15 min): 101%; Compound Remaining (% of 0 min) (CYP2C9; CYP2C9, 30 min): 97.9%; Compound Remaining (% of 0 min) (CYP2C9; CYP2C9, 45 min): 99.0%; hepatocyte CLint at 1 µM (CYP1A2; assay 2, fluvoxamine 10 µM): 3.95 ± 0.941 µL/min/1e6 cells; hepatocyte CLint at 1 µM (CYP1A2; assay 2, furafylline 1 µM): 2.05 ± 2.04 µL/min/1e6 cells; hepatocyte CLint at 1 µM (CYP1A2; assay 2, furafylline 3 µM): 1.7 ± 0.885 µL/min/1e6 cells; hepatocyte CLint at 1 µM (CYP1A2; assay 2, thiabendazole 10 µM): 2.96 ± 1.17 µL/min/1e6 cells; hepatocyte CLint at 1 µM (CYP1A2; assay 3, cimetidine 10 µM): 5.43 ± 1.9 µL/min/1e6 cells; hepatocyte CLint at 1 µM (CYP1A2; assay 3, cimetidine 100 µM): 10.9 ± 1.27 µL/min/1e6 cells; hepatocyte CLint at 1 µM (CYP1A2; assay 3, cimetidine 300 µM): 9.19 ± 1.7 µL/min/1e6 cells; hepatocyte CLint at 1 µM (CYP1A2; assay 3, mexiletine 10 µM): 0.861 ± 0.522 µL/min/1e6 cells; hepatocyte CLint at 1 µM (CYP1A2; assay 3, mexiletine 300 µM): 5.85 ± 1.25 µL/min/1e6 cells; half-life at 1 µM (CYP1A2; assay 2, fluvoxamine 10 µM): 5.85 h; half-life at 1 µM (CYP1A2; assay 2, furafylline 1 µM): 11.3 h; half-life at 1 µM (CYP1A2; assay 2, furafylline 3 µM): 13.6 h; half-life at 1 µM (CYP1A2; assay 2, thiabendazole 10 µM): 7.8 h; half-life at 1 µM (CYP1A2; assay 3, cimetidine 10 µM): 4.25 h; half-life at 1 µM (CYP1A2; assay 3, cimetidine 100 µM): 2.13 h; half-life at 1 µM (CYP1A2; assay 3, cimetidine 300 µM): 2.52 h; half-life at 1 µM (CYP1A2; assay 3, mexiletine 10 µM): 26.8 h; half-life at 1 µM (CYP1A2; assay 3, mexiletine 300 µM): 3.95 h; hepatocyte CLint at 1 µM ([1]; CLint, assay 2, no inhibitor): 8.62 ± 2.23 µL/min/1e6 cells; hepatocyte CLint at 1 µM ([1]; CLint, assay 3, no inhibitor): 16.7 ± 2.06 µL/min/1e6 cells; hepatocyte CLint at 1 µM ([1]; intrinsic clearance, assay 1 (pre-screening assay), no inhibitor): 15.2 ± 1.09 µL/min/1e6 cells; half-life at 1 µM ([1]; assay 2, no inhibitor): 2.68 h; half-life at 1 µM ([1]; assay 3, no inhibitor): 1.38 h; Compound Remaining (% of 0 min) (CYP3A4; CYP3A4, 0 min): 100%; Compound Remaining (% of 0 min) (CYP3A4; CYP3A4, 5 min): 94.6%; Compound Remaining (% of 0 min) (CYP3A4; CYP3A4, 15 min): 98.2%; Compound Remaining (% of 0 min) (CYP3A4; CYP3A4, 30 min): 100%; Compound Remaining (% of 0 min) (CYP3A4; CYP3A4, 45 min): 97.5%; half-life at 1 µM (CYP3A4; human, pH 7.4, 1 µM substrate, recombinant CYP3A4, NADPH, minus value = not metabolised, read-out: t½): ≥ 2.45 h; t½ (CYP2C8): 11.5 h; t½ (CYP2C8; listed as flubendazole): ≥ 2.45 h; Compound Remaining (% of 0 min) (CYP2C8; CYP2C8, 0 min): 100%; Compound Remaining (% of 0 min) (CYP2C8; CYP2C8, 5 min): 100%; Compound Remaining (% of 0 min) (CYP2C8; CYP2C8, 30 min): 99.4%; Compound Remaining (% of 0 min) (CYP2C8; CYP2C8, 45 min): 95.3%
